# Data published in ChEMBL document CHEMBL3046609, “Herbicidal properties of the thaxtomin group of phytotoxins” (2001).
# The source made the active and inactive calls. No cut-off for these calls is given here.
# Legend:
# Helianthus annuus [1] = experiment: Post-emergence growth inhibition of Helianthus annuus (sunflower) assessed as visual injury at 1 kg/ha after 9 days relative to control; type: functional; design: scale not given: the % may be the effect or the level left
# Helianthus annuus [2] = experiment: Pre-emergence growth inhibition of Helianthus annuus (sunflower) assessed as meristematic at 0.5 to 4 kg/ha after 16 days; type: functional, organism-based
# [3] = tested on: Agrostis stolonifera var. palustris; experiment: Herbicidal activity against Agrostis stolonifera var. palustris assessed as visual injury at 25 ppm after 9 days relative to control; type: functional
# Abutilon theophrasti [4] = experiment: Herbicidal activity against Abutilon theophrasti (velvetleaf) assessed as visual injury at 10 ug/seedling applied to leaf after 1 week relative to control; type: functional
# [5] = tested on: Agrostis stolonifera var. palustris; experiment: Herbicidal activity against Agrostis stolonifera var. palustris assessed as visual injury at 1 ppm after 9 days relative to control; type: functional
# Avena fatua [6] = experiment: Post-emergence growth inhibition of Avena fatua assessed as visual injury at 1 kg/ha after 9 days relative to control; type: functional; design: scale not given: the % may be the effect or the level left
# Avena fatua [7] = experiment: Post-emergence growth inhibition of Avena fatua assessed as meristematic at 0.5 to 4 kg/ha after 9 days; type: functional, organism-based
# Helianthus annuus [8] = experiment: Post-emergence growth inhibition of Helianthus annuus (sunflower) assessed as wilting at 0.5 to 4 kg/ha after 9 days; type: functional, organism-based
# Helianthus annuus [9] = experiment: Post-emergence growth inhibition of Helianthus annuus (sunflower) assessed as meristematic at 0.5 to 4 kg/ha after 9 days; type: functional, organism-based
# Ipomoea hederacea [10] = experiment: Post-emergence herbicidal activity against Ipomoea hederacea (ivy-leaved morning glory) assessed as visual injury at 2 kg/ha after 9 days relative to control; type: functional
# Ipomoea hederacea [11] = experiment: Herbicidal activity against Ipomoea hederacea (ivy-leaved morning glory) assessed as visual injury at 1 ug/seedling applied to cotyledon after 1 week relative to control; type: functional
# [12] = tested on: Agrostis stolonifera var. palustris; experiment: Herbicidal activity against Agrostis stolonifera var. palustris assessed as visual injury at 0.04 ppm after 9 days relative to control; type: functional
# Lemna minor [13] = experiment: Herbicidal activity against Lemna minor (common duckweed) assessed as visual injury at 0.04 ppm after 9 days relative to control; type: functional
# Arabidopsis thaliana = experiment: Growth inhibition of Arabidopsis thaliana var. Columbia assessed as stunting after 9 days by agarose-based test; type: functional, organism-based
# Ipomoea hederacea [14] = experiment: Post-emergence herbicidal activity against Ipomoea hederacea (ivy-leaved morning glory) assessed as visual injury at 4 kg/ha after 9 days relative to control; type: functional
# Ipomoea hederacea [15] = experiment: Pre-emergence herbicidal activity against Ipomoea hederacea (ivy-leaved morning glory) assessed as visual injury at 2 kg/ha after 16 days relative to control; type: functional
# Lemna minor [16] = experiment: Herbicidal activity against Lemna minor (common duckweed) assessed as visual injury at 5 ppm after 9 days relative to control; type: functional
# Ipomoea hederacea [17] = experiment: Herbicidal activity against Ipomoea hederacea (ivy-leaved morning glory) assessed as visual injury at 1 ug/seedling applied to meristem after 1 week relative to control; type: functional
# Helianthus annuus [18] = experiment: Post-emergence growth inhibition of Helianthus annuus (sunflower) after 9 days; type: functional
# Ipomoea hederacea [19] = experiment: Pre-emergence herbicidal activity against Ipomoea hederacea (ivy-leaved morning glory) assessed as visual injury at 0.5 kg/ha after 16 days relative to control; type: functional
# Avena fatua [20] = experiment: Pre-emergence growth inhibition of Avena fatua assessed as visual injury at 0.5 kg/ha after 16 days relative to control; type: functional; design: scale not given: the % may be the effect or the level left
# Avena fatua [21] = experiment: Pre-emergence growth inhibition of Avena fatua assessed as meristematic at 0.5 to 4 kg/ha after 16 days; type: functional, organism-based
# Helianthus annuus [22] = experiment: Herbicidal activity against Helianthus annuus (sunflower) assessed as visual injury at 100 ug/seedling applied to cotyledon after 1 week relative to control; type: functional
# Helianthus annuus [23] = experiment: Herbicidal activity against Helianthus annuus (sunflower) assessed as visual injury at 10 ug/seedling applied to meristem after 1 week relative to control; type: functional
# Echinochloa crus-galli [24] = experiment: Pre-emergence herbicidal activity against Echinochloa crus-galli (barnyard grass) after 16 days; type: functional
# Ipomoea hederacea [25] = experiment: Post-emergence herbicidal activity against Ipomoea hederacea (ivy-leaved morning glory) assessed as visual injury at 0.5 kg/ha after 9 days relative to control; type: functional
# Lemna minor [26] = experiment: Herbicidal activity against Lemna minor (common duckweed) after 9 days; type: functional
# Avena fatua [27] = experiment: Pre-emergence growth inhibition of Avena fatua assessed as visual injury at 4 kg/ha after 16 days relative to control; type: functional; design: scale not given: the % may be the effect or the level left
# Ipomoea hederacea [28] = experiment: Pre-emergence herbicidal activity against Ipomoea hederacea (ivy-leaved morning glory) after 16 days; type: functional
# Echinochloa crus-galli [29] = experiment: Pre-emergence herbicidal activity against Echinochloa crus-galli (barnyard grass) assessed as stunting at 0.5 to 4 kg/ha after 16 days; type: functional, organism-based
# Avena fatua [30] = experiment: Post-emergence growth inhibition of Avena fatua assessed as stunting at 0.5 to 4 kg/ha after 9 days; type: functional, organism-based
# Helianthus annuus [31] = experiment: Pre-emergence growth inhibition of Helianthus annuus (sunflower) assessed as visual injury at 4 kg/ha after 16 days relative to control; type: functional; design: scale not given: the % may be the effect or the level left
# Ipomoea hederacea [32] = experiment: Herbicidal activity against Ipomoea hederacea (ivy-leaved morning glory) assessed as visual injury at 10 ug/seedling applied to cotyledon after 1 week relative to control; type: functional
# Lemna minor [33] = experiment: Herbicidal activity against Lemna minor (common duckweed) assessed as visual injury at 25 ppm after 9 days relative to control; type: functional
# Ipomoea hederacea [34] = experiment: Pre-emergence herbicidal activity against Ipomoea hederacea (ivy-leaved morning glory) assessed as stunting at 0.5 to 4 kg/ha after 16 days; type: functional, organism-based
# [35] = tested on: Agrostis stolonifera var. palustris; experiment: Herbicidal activity against Agrostis stolonifera var. palustris assessed as stunting after 9 days by agarose-based test; type: functional, organism-based
# Avena fatua [36] = experiment: Post-emergence growth inhibition of Avena fatua assessed as visual injury at 2 kg/ha after 9 days relative to control; type: functional; design: scale not given: the % may be the effect or the level left
# Helianthus annuus [37] = experiment: Herbicidal activity against Helianthus annuus (sunflower) assessed as visual injury at 1 ug/seedling applied to meristem after 1 week relative to control; type: functional
# Helianthus annuus [38] = experiment: Herbicidal activity against Helianthus annuus (sunflower) assessed as visual injury at 1 ug/seedling applied to cotyledon after 1 week relative to control; type: functional
# [39] = tested on: Agrostis stolonifera var. palustris; experiment: Herbicidal activity against Agrostis stolonifera var. palustris after 9 days; type: functional
# Ipomoea hederacea [40] = experiment: Post-emergence herbicidal activity against Ipomoea hederacea (ivy-leaved morning glory) assessed as visual injury at 1 kg/ha after 9 days relative to control; type: functional
# Abutilon theophrasti [41] = experiment: Herbicidal activity against Abutilon theophrasti (velvetleaf) assessed as visual injury at 100 ug/seedling applied to meristem after 1 week relative to control; type: functional
# Avena fatua [42] = experiment: Pre-emergence growth inhibition of Avena fatua assessed as visual injury at 2 kg/ha after 16 days relative to control; type: functional; design: scale not given: the % may be the effect or the level left
# Ipomoea hederacea [43] = experiment: Herbicidal activity against Ipomoea hederacea (ivy-leaved morning glory) assessed as visual injury at 100 ug/seedling applied to cotyledon after 1 week relative to control; type: functional
# Ipomoea hederacea [44] = experiment: Post-emergence herbicidal activity against Ipomoea hederacea (ivy-leaved morning glory) assessed as meristematic at 0.5 to 4 kg/ha after 9 days; type: functional, organism-based
# Helianthus annuus [45] = experiment: Herbicidal activity against Helianthus annuus (sunflower) assessed as visual injury at 100 ug/seedling applied to meristem after 1 week relative to control; type: functional
# Ipomoea hederacea [46] = experiment: Pre-emergence herbicidal activity against Ipomoea hederacea (ivy-leaved morning glory) assessed as visual injury at 4 kg/ha after 16 days relative to control; type: functional
# Echinochloa crus-galli [47] = experiment: Post-emergence herbicidal activity against Echinochloa crus-galli (barnyard grass) assessed as visual injury at 2 kg/ha after 9 days relative to control; type: functional
# Echinochloa crus-galli [48] = experiment: Pre-emergence herbicidal activity against Echinochloa crus-galli (barnyard grass) assessed as meristematic at 0.5 to 4 kg/ha after 16 days; type: functional, organism-based
smiles,measurement,setting,value
CN1C(=O)[C@](O)(Cc2cccc(O)c2)N(C)C(=O)[C@@H]1Cc1c[nH]c2cccc([N+](=O)[O-])c12 [THAXTOMIN A],Activity,Helianthus annuus [1],85%
same,Activity,Helianthus annuus [2],Active
same,Activity,[3],100%
same,Activity,Abutilon theophrasti [4],0%
same,Activity,[5],100%
same,Activity,Avena fatua [6],30%
same,Activity,Avena fatua [7],Active
same,Activity,Helianthus annuus [8],Active
same,Activity,Helianthus annuus [9],Active
same,Activity,Ipomoea hederacea [10],80%
same,Activity,Ipomoea hederacea [11],0%
same,Activity,[12],80%
same,Activity,Lemna minor [13],70%
same,growth inhibition (GI),Arabidopsis thaliana,Active
same,Activity,Ipomoea hederacea [14],85%
same,Activity,Ipomoea hederacea [15],100%
same,Activity,Lemna minor [16],100%
same,Activity,Ipomoea hederacea [17],75%
same,GR50,Helianthus annuus [18],<500 g/ha
same,Activity,Ipomoea hederacea [19],100%
same,Activity,Avena fatua [20],100%
same,Activity,Avena fatua [21],Active
same,Activity,Helianthus annuus [22],0%
same,Activity,Helianthus annuus [23],90%
same,GR50,Echinochloa crus-galli [24],<500 g/ha
same,Activity,Ipomoea hederacea [25],70%
same,GR50,Lemna minor [26],5 ppb
same,Activity,Avena fatua [27],100%
same,GR50,Ipomoea hederacea [28],<500 g/ha
same,Activity,Echinochloa crus-galli [29],Active
same,Activity,Avena fatua [30],Active
same,Activity,Helianthus annuus [31],100%
same,Activity,Ipomoea hederacea [32],0%
same,Activity,Lemna minor [33],100%
same,Activity,Ipomoea hederacea [34],Active
same,Activity,[35],Active
same,Activity,Avena fatua [36],20%
same,Activity,Helianthus annuus [37],50%
same,Activity,Helianthus annuus [38],0%
same,GR50,[39],12 ppb
same,Activity,Ipomoea hederacea [40],80%
same,Activity,Abutilon theophrasti [41],80%
same,Activity,Avena fatua [42],100%
same,Activity,Ipomoea hederacea [43],0%
same,Activity,Ipomoea hederacea [44],Active
same,Activity,Helianthus annuus [45],90%
same,Activity,Ipomoea hederacea [46],100%
same,Activity,Echinochloa crus-galli [47],40%
same,Activity,Echinochloa crus-galli [48],Active
